In article PMC3671673, “In Vitro Morphological Assessment of Apoptosis Induced by Antiproliferative Constituents from the Rhizomes of Curcuma zedoaria” (Evidence-based Complementary and Alternative Medicine : eCAM, 2013):
Values after ≈ are worked out from the molar mass of the structure shown. Marks after values point to notes of the source that are not given here.

Experiments:
[1] = system: colon carcinoma cell line (HCT-116); experiment: Neutral red cytotoxicity assay, HCT-116; assay type: cell-based; conditions: Homo sapiens, isolated compounds, 72 h, mean ± SD of three replicates, read-out: IC50 (μg/mL) HCT-116
Protocol: The human cancer cells KB, Ca Ski, MCF-7, HCT-116, A549, and noncancer human cell lines (MRC-5) were purchased from the American Tissue Culture Collection (ATCC, USA). The supplemented RPMI 1640 media and eagle minimum essential medium (EMEM) were purchased from Sigma-Aldrich, USA. The supplements or antibiotics such as foetal bovine serum (FBS), penicillin/streptomycin (P/S) (100 μg/mL), amphotericin B (50 μg/mL), and accutase were purchased from PAA Laboratories, Austria. Sodium pyruvate (11 mg/mL) purchased from Sigma-Aldrich, USA. The cells were cultured in a SHEL LAB water-jacketed CO2 incubator with […] tissue culture flasks (Nunc, Denmark), which was observed routinely under inverted microscope (Leica DMI3000 B, Germany) for any contamination and seeded into 96-well flat bottom microtiter plate (Nunc, Denmark). The extract or pure compounds was dissolved in dimethyl sulfoxide (DMSO, Molecular Biology Grade, >99.9%) from Sigma-Aldrich, USA. Microtiter plate incubator shaker (LT Biomax 500) was used and absorbance was measured at 540 nm using an ELISA microplate reader (EMax microplate reader of Molecular Devices, USA). MCF-7 and Ca Ski were cultured in RPMI 1640 media supplemented with 10% v/v FBS, P/S, and amphotericin B and MRC-5 in EMEM media with 10% v/v FBS, P/S, amphotericin B, and sodium pyruvate. The cells were cultured in tissue culture flask in 5% CO2 incubator kept at 37°C in a humidified atmosphere and observed routinely under inverted microscope from any contaminations. Each fresh medium was replaced every 2 or 3 days until cell confluence was achieved and the cells were detached by using accutase.
The in vitro cytotoxicity activity was performed using the neutral red cytotoxicity assay based on the initial protocol as described earlier with some modifications. Briefly, cells were detached from the tissue culture flask with 1.0 mL solution of accutase and PBS solution. The cell pellet was obtained by centrifugation at 1,000 rpm for 5 minutes. The density of the viable cells was counted by 0.4% of trypan blue exclusion in a haemocytometer. Cells were then plated in 96-well microtiter plate (Nunc), at a concentration of 1 × 10^4 cells/well and incubated in a CO2 incubator at 37°C to allow the cells to adhere. After 24 h, the cells were treated with six different concentrations, that is, 1, 10, 25, 50, 75, and 100 μg/mL of each tested agent in three replicates. The plates were incubated for 72 h at 37°C in a 5% CO2 incubator. The untreated cells were regarded as a negative control, whilst cells incubated only with DMSO (0.5%, v/v) were used as a vehicle control. No effect due to the DMSO was observed. Doxorubicin was used as the positive control. After 72 h, the old medium was substituted with fresh medium containing 50 μg/mL neutral red. The 96-well plates were placed into incubator for 3 h. This is to allow the uptake of the vital dye into the lysosomes of viable and undamaged cells. Then, the media was discarded and cells were washed with 200 μL of neutral red washing solution. The dye was eluted from the cells by adding neutral red resorb solution (200 μL). The plate was further incubated for 30 min with rapid agitation on a microtiter plate shaker. The optical density (OD) of the eluted dye was read at 540 nm using a microplate reader. The experiments were conducted in triplicates. […] Cytotoxicity of each test agent is expressed as IC50 value. […]

[2] = system: Ca Ski cells; experiment: Hoechst 33342/PI dual staining, quantification of apoptotic/necrotic cells, Ca Ski; assay type: cell-based, human; conditions: 48 h
Protocol: (§1) Briefly, cells were grown on tissue culture dishes and treated with or without tested compounds at concentrations of 12.5, 25, 40, and 50 μg/mL. After 48 hours, the cells were harvested and washed with cold PBS to a density of 5 × 10^5 cells/mL. The cells were suspended in Hoechst 33342 solution (10 μg/mL) and were incubated at 37°C in CO2 for 7 minutes. After incubation with Hoechst 33342, the cells were counter stained with propidium iodide (2.5 μg/mL). The samples were maintained in the dark for 15 minutes. After staining, an aliquot of cell suspension was placed on a glass microscope slides. The slides were observed immediately under inverted fluorescence microscope (DM16000B, Germany) using UV/488 dual excitation and the fluorescence was measured at ~460 nm emission of Hoechst 33342 dye and >575 nm emission of propidium iodide at 630x magnification. At least 200 total target cells were counted and the numbers of each four cellular states were recorded and analyzed using fluorescence microscopy for quantification of apoptosis and necrosis. The experiment was conducted in triplicates. The percentages of apoptotic and necrotic cells were determined according to the following formula [27]: (1) Percentage of Apoptotic Cells (%) =(LA+DA)/ LN+LA+DN+DA×100,Percentage of Necrotic Cells (%) = DN/LN+LA+DN+DA×100, where LN are live target cells with normal nuclei (Hoechst 33342/PI: blue chromatin with organized structure), LA are live cells with apoptotic nuclei (Hoechst 33342/PI: bright blue chromatin that is highly condensed or fragmented), DN are dead cells with normal nuclei (Hoechst 33342/PI: pink chromatin with organized structure), and DA are dead cells with apoptotic nuclei (Hoechst 33342/PI: bright pink chromatin that is, highly condensed or fragmented).

[3] = system: Ca Ski cells; experiment: Morphological changes by phase contrast inverted microscope, Ca Ski; assay type: cell-based, human; conditions: 48 h, 12.5-50 μg/mL, phase contrast 200x
Protocol: Observation of morphological changes of apoptotic cells was performed according to the method with slight modifications. Briefly, 5 × 10^5 cells were incubated for 48 hours with or without selected compounds at concentrations of 12.5, 25, 40, and 50 μg/mL in a 60 mm diameter tissue culture dishes. The medium was discarded and cells were washed once with PBS. The morphological changes of the apoptotic cells were observed using phase contrast inverted microscope (Leica DMI 3000B, Germany) at 200x magnifications.

[4] = system: HCT-116 cells; experiment: Hoechst 33342/PI dual staining, quantification of apoptotic/necrotic cells, HCT-116; assay type: cell-based, human; conditions: 48 h
Protocol: as §1

SMILES | IC50 [1] [µg/mL] | Percentage of apoptotic cells (%) ([2]; 12.5 μg/mL) | Percentage of necrotic cells (%) ([2]; 12.5 μg/mL) | Percentage of apoptotic cells (%) ([2]; 25 μg/mL) | Percentage of necrotic cells (%) ([2]; 25 μg/mL) | Percentage of apoptotic cells (%) ([2]; 40 μg/mL) | Percentage of necrotic cells (%) ([2]; 40 μg/mL) | Percentage of apoptotic cells (%) ([2]; 50 μg/mL) | Percentage of necrotic cells (%) ([2]; 50 μg/mL) | morphological changes (in words) [3] | Percentage of apoptotic cells (%) ([4]; HCT-116, 12.5 μg/mL) | Percentage of necrotic cells (%) ([4]; HCT-116, 12.5 μg/mL) | Percentage of apoptotic cells (%) ([4]; HCT-116, 25 μg/mL) | Percentage of necrotic cells (%) ([4]; HCT-116, 25 μg/mL) | Percentage of apoptotic cells (%) ([4]; HCT-116, 40 μg/mL) | Percentage of necrotic cells (%) ([4]; HCT-116, 40 μg/mL) | Percentage of apoptotic cells (%) ([4]; HCT-116, 50 μg/mL) | Percentage of necrotic cells (%) ([4]; HCT-116, 50 μg/mL) | further results
C=C1CCC(C(C)C)=CC2C1CC[C@@]2(C)O (stereo partly drawn) [Alismol, alismol] | 9 ± 0.9 (≈ 40.8 µM) | 8.83 ± 0.58^a % | 5.83 ± 1.50^a % | 53.67 ± 1.76^d % | 14.00 ± 3.50^b % | 41.67 ± 0.76^c % | 45.33 ± 0.60^c % | 32.67 ± 1.04^b % | 60.33 ± 1.00^d % | typical apoptotic features | 48.83 ± 1.61^b % | 19.50 ± 1.00^a % | 55.33 ± 3.01^b % | 26.00 ± 1.30^b % | 21.33 ± 2.02^a % | 67.67 ± 2.60^c % | 19.00 ± 0.87^a % | 76.67 ± 0.80^d % | Percentage of apoptotic cells (%) ([2]; 25 μg/mL, listed as alismol): 53.7 ± 1.8%; Percentage of necrotic cells (%) ([2]; 50 μg/mL, listed as alismol): 60.3 ± 1.0%; Percentage of apoptotic cells (%) ([4]; HCT-116, 25 μg/mL, listed as alismol): 55.3 ± 3.0%; Percentage of necrotic cells (%) ([4]; HCT-116, 50 μg/mL, listed as alismol): 76.7 ± 0.8%
C=CC1(C)Cc2occ(C)c2C(=O)C1C(=C)C (stereo not drawn) [Curzerenone, curzerenone] | 53 ± 1.5 (≈ 230 µM) | 4.82 ± 0.59^a % | 3.50 ± 1.30^a % | 7.89 ± 1.77^b % | 5.57 ± 1.10^b % | 39.67 ± 1.89^c % | 11.83 ± 2.10^c % | 54.67 ± 1.76^d % | 16.33 ± 1.0^d % | typical apoptotic features | 45.00 ± 0.5^a % | 9.00 ± 1.50^a % | 50.00 ± 0.5^b % | 15.33 ± 0.80^b % | 46.5 ± 1.44^a % | 25.00 ± 0.50^c % | 49.17 ± 1.4^b % | 28.00 ± 0.50^d % | Percentage of apoptotic cells (%) ([2]; 50 μg/mL, listed as curzerenone): 54.7 ± 1.8%; Percentage of apoptotic cells (%) ([4]; HCT-116, 25 μg/mL, listed as curzerenone): 50.0 ± 0.5%
